US20110045101A1, “FUNGICIDAL SUBSTITUTED AZOLES” (E.I. Du Pont De Nemours and Company, priority 2009, published 2011)

Assays:
Assay type in all cases: in vivo
Settings in all cases: 200 ppm, 100 = 100% disease control
[1] = test system: Erysiphe graminis f. sp. tritici; assay: Test J: wheat powdery mildew on wheat seedlings, sprayed the day before inoculation, visual disease rating
Source text: (§1) General protocol for preparing test suspensions for Tests A-J: The test compounds were first dissolved in acetone in an amount equal to 3% of the final volume and then suspended at the desired concentration (in ppm) in acetone and purified water (50/50 mix) containing 250 ppm of the surfactant Trem® 014 (polyhydric alcohol esters). The resulting test suspensions were then used in tests A-J. Spraying a 200 ppm test suspension to the point of run-off on the test plants was the equivalent of a rate of 500 g/ha. […] The test suspension was sprayed to the point of run-off on wheat seedlings. […] A dash (-) indicates no test results. All results are for 200 ppm except where followed by “*”, which indicates 40 ppm.

[2] = test system: Alternaria solani; assay: Test D: tomato early blight, sprayed the day before inoculation, visual disease rating
Source text: as §1

[3] = test system: Puccinia recondita f. sp. tritici; assay: Test I: wheat leaf rust on wheat seedlings, sprayed the day before inoculation, visual disease rating
Source text: as §1

[4] = test system: Septoria tritici; assay: Test G: wheat leaf blotch on wheat seedlings, sprayed the day before inoculation, visual disease rating
Source text: General protocol for preparing test suspensions for Tests A-J: The test compounds were first dissolved in acetone in an amount equal to 3% of the final volume and then suspended at the desired concentration (in ppm) in acetone and purified water (50/50 mix) containing 250 ppm of the surfactant Trem® 014 (polyhydric alcohol esters). The resulting test suspensions were then used in tests A-J. Spraying a 200 ppm test suspension to the point of run-off on the test plants was the equivalent of a rate of 500 g/ha. […] The test suspension was sprayed to the point of run-off on wheat seedlings. The following day the seedlings were inoculated with a spore suspension of Septoria tritici (the causal agent of wheat leaf blotch) and incubated in saturated atmosphere at 24° C. for 48 h, and then moved to a growth chamber at 20° C. for 19 days, after which time visual disease ratings were made. […] A dash (-) indicates no test results. All results are for 200 ppm except where followed by “*”, which indicates 40 ppm.

[5] = test system: Botrytis cinerea; assay: Test C: tomato Botrytis on tomato seedlings, sprayed the day before inoculation, visual disease rating
Source text: General protocol for preparing test suspensions for Tests A-J: The test compounds were first dissolved in acetone in an amount equal to 3% of the final volume and then suspended at the desired concentration (in ppm) in acetone and purified water (50/50 mix) containing 250 ppm of the surfactant Trem® 014 (polyhydric alcohol esters). The resulting test suspensions were then used in tests A-J. Spraying a 200 ppm test suspension to the point of run-off on the test plants was the equivalent of a rate of 500 g/ha. […] The test suspension was sprayed to the point of run-off on tomato seedlings. […] A dash (-) indicates no test results. All results are for 200 ppm except where followed by “*”, which indicates 40 ppm.

[6] = test system: Septoria nodorum; assay: Test F: wheat glume blotch on wheat seedlings, sprayed the day before inoculation, visual disease rating
Source text: as §1

[7] = 0 = no control relative to controls

Compound | Test J disease control rating ([1]; 0 = no control) [%] | Test D disease control rating ([2]; 0 = no control) [%] | Test I disease control rating ([3]; 0 = no control) [%] | Test G disease control rating ([4]; 0 = no control) [%] | Test C disease control rating ([5]; 0 = no control) [%] | Test F disease control rating ([6]; 0 = no control) [%] | Test J disease control rating [1, 7] [%] | Test D disease control rating [2, 7] [%] | Test I disease control rating [3, 7] [%] | Test G disease control rating [4, 7] [%] | Test C disease control rating [5, 7] [%] | Test F disease control rating [6, 7] [%]
Cc1nc(Cl)c(-c2c(F)cccc2F)n1-c1cccc(Cl)c1 [compound 236] | 100 | 100 | 100 | 96 | 100 | 99 |  |  |  |  |  | 
Cc1ccc(-n2c(Br)nc(Cl)c2-c2c(F)ccc(F)c2F)cc1 [compound 141] |  |  |  |  |  |  | 100 | 100 | 99 | 91 | 99 | 0
COc1cc(F)c(-c2c(C)ncn2-c2ccc(Cl)nc2)c(F)c1 [compound 254] | 98 | 100 | 99 | 95 | 100 | 0 |  |  |  |  |  | 
COc1ccc(-c2c(Cl)ncn2-c2ccc(Cl)cc2)c(F)c1 [compound 106] |  |  |  |  |  |  | 95 | 99 | 99 | 93 | 100 | 64
COc1ccc(-c2c(Cl)nc(Br)n2-c2ccc(Cl)cc2)c(F)c1 [compound 110] |  |  |  |  |  |  | 96 | 99 | 97 | 95 | 94 | 100
Fc1cccc(C(F)(F)F)c1-c1c(Cl)nc(Br)n1-c1ccc(Cl)cc1 [compound 86] |  |  |  |  |  |  | 99 | 0 | 27 | 93 | 0 | 0
Fc1ccccc1-n1c(Br)nc(Cl)c1-c1c(F)cccc1F [compound 58] |  |  |  |  |  |  | 100 | 100 | 99 | 79 | 98 | 51
Cc1nn(C)c(-c2c(F)cc(F)cc2F)c1-c1ccc(Cl)cc1 [compound 69] |  |  |  |  |  |  | 97 | 99 | 0 | 25 | 74 | 0
Fc1ccc(F)c(-c2c(Cl)nc(Br)n2-c2ccc(Cl)c(Cl)c2)c1F [compound 440] |  |  |  |  |  |  | 99 | 100 | 98 | 95 | 99 | 98
COc1ccc(F)c(-c2c(Cl)nc(Br)n2-c2ccc(C)cc2)c1F [compound 281] | 100 | 100 | 100 | 96 | 100 | 97 |  |  |  |  |  | 
COc1cc(F)c(-c2c(-c3ccc(Cl)cc3)c(C)nn2C)c(F)c1 [compound 77] |  |  |  |  |  |  | 100 | 100 | 99 | 97 | 98 | 82
Fc1ccc(-n2c(Br)nc(Cl)c2-c2ccc(F)cc2Cl)cc1 [compound 182] | 99 | 100 | 97 | 96 | 99 | 73 |  |  |  |  |  | 
COc1ccc(F)c(-c2c(Cl)ncn2-c2ccc(I)cc2)c1F [compound 448] |  |  |  |  |  |  | 98 | 100 | 95 | 98 | 97 | 89
Cc1nc(Cl)c(-c2ccc(F)cc2Cl)n1-c1ccc(F)cc1 [compound 187] | 100 | 100 | 100 | 97 | 99 | 94 |  |  |  |  |  | 
Cc1ccc(F)c(-c2c(Cl)nc(Br)n2-c2ccc(Cl)cc2)c1F [compound 105] |  |  |  |  |  |  | 100 | 99 | 99 | 94 | 98 | 94
Cc1nc(Cl)c(-c2c(F)ccc(F)c2F)n1-c1ccc(Cl)cc1 [compound 48] |  |  |  |  |  |  | 100 | 100 | 100 | 94 | 99 | 100
COc1ccc(-c2c(Cl)nc(C)n2-c2ccc(Cl)cc2)c(F)c1 [compound 113] |  |  |  |  |  |  | 97 | 99 | 97 | 95 | 98 | 97
N#Cc1cc(F)c(-c2c(Cl)nc(Br)n2-c2ccc(Cl)cc2)c(F)c1 [compound 201] | 100 | 100 | 96 | 98 | 99 | 100 |  |  |  |  |  | 
Cc1ccc(-n2c(Cl)nc(Cl)c2-c2c(F)cccc2Cl)cc1 [compound 227] | 99 | 96 | 99 | 94 | 98 | 0 |  |  |  |  |  | 
COc1cc(F)c(-c2c(Cl)nc(Br)n2-c2ccc(C)cc2)c(F)c1 [compound 148] | 100 | 100 | 100 | 100 | 99 | 99 |  |  |  |  |  | 
COc1ccc(F)c(-c2c(Br)ncn2-c2ccc(Cl)cc2)c1F [compound 449] |  |  |  |  |  |  | 100 | 100 | 99 | 97 | 99 | 99
